Measurements published in patent US6479435B1, “Diaryl ethers and processes for their preparation and herbicidal and desiccant compositions containing them” (ISK Americas Incorporated, priority 1997, dated 2002).

Columns and labels:
Assay type in all cases: in vivo
[1] = test system: Johnsongrass (Sorghum halepense, SORHA); assay: Pre-emerge greenhouse herbicide test, phytotoxicity rating; details: 14 days after application, rating scale 0-100
From the text: (§1) A standard greenhouse herbicide activity screening system was used to evaluate the herbicidal efficacy and crop safety of these test compounds. Six broadleaf weed species including redroot pigweed (Amaranthus retroflexus, AMARE), velvetleaf (Abutilon theophrasti, ABUTH), sicklepod (Cassia obtusifolia, CASOB), ivyleaf morningglory (Ipomoea hederacea, IPOHE), lambsquarters (Chenopodium album, CHEAL) and common ragweed (Ambrosia artemisiifolia L., AMBEL) were used as test species. Four grass weed species including green foxtail (Setaria viridis, SETVI), barnyardgrass (Echinochloa crusgalli, ECHCG), Johnsongrass (Sorghum halepense, SORHA), and large crabgrass (Digitaria sanguinalis, DIGSA) were also used. In addition, three crop species, field corn (Zea mays L., var. Dekalb 535, CORN), soybean (Glycine max L., var. Pella 86, SOY), and upland rice (Oryza sp., var.Tebonnet, RICE) were included.
(§2) All plants were grown in 10 cm square plastic pots which were filled with a sandy loam soil mix. For preemerge tests, seeds were planted one day prior to application of the test compounds. Immediately after application, test units of the pre-emerge applications were watered at the soil surface to incorporate the test materials. Subsequently, these test units were bottom-watered.
(§3) All test compounds were dissolved in acetone and applied to the test units in a volume of 187 l/ha. Test materials were applied at rates ranging from 125 g ai/ha to 1000 g ai/ha using a track sprayer equipped with a TJ8001E even flow flat fan spray nozzle. Plants were arranged on a shelf so that the top of the canopy (post-emerge) or top of the soil surface (pre-emerge) was 40-45 cm below the nozzle. Pressurized air was used to force the test solution through the nozzle as it was mechanically advanced (via electrically driven chain drive) over the top of all test plants/pots. This application simulates a typical commercial field herbicide application.
(§4) At 14 days after application of the test materials, phytotoxicity ratings were recorded. A rating scale of 0-100 was used as previously described in Research Methods in Weed Science, 2nd edition, B. Truelove, Ed., Southern Weed Science Society, Auburn University, Auburn, Ala., 1977. Briefly, “0” corresponds to no damage and “100” corresponds to complete death of all plants in the test unit. This scale was used both to determine efficacy against weed species and damage to crop species. Herbicide activity data for various compounds of this invention, which are shown by compound number in Tables 1-9, are shown in Tables 13 and 14.

[2] = test system: barnyardgrass (Echinochloa crusgalli, ECHCG); assay: as above; details: 14 days after application, rating scale 0-100
From the text: as §1, §2, §3, §4

[3] = test system: green foxtail (Setaria viridis, SETVI); assay: as above; details: 14 days after application, rating scale 0-100
From the text: as §1, §2, §3, §4

[4] = test system: ivyleaf morningglory (Ipomoea hederacea, IPOHE); assay: as above; details: 14 days after application, rating scale 0-100
From the text: as §1, §2, §3, §4

[5] = test system: lambsquarters (Chenopodium album, CHEAL); assay: as above; details: 14 days after application, rating scale 0-100
From the text: as §1, §2, §3, §4

[6] = test system: large crabgrass (Digitaria sanguinalis, DIGSA); assay: as above; details: 14 days after application, rating scale 0-100
From the text: as §1, §2, §3, §4

[7] = test system: redroot pigweed (Amaranthus retroflexus, AMARE); assay: as above; details: 14 days after application, rating scale 0-100
From the text: as §1, §2, §3, §4

[8] = test system: sicklepod (Cassia obtusifolia, CASOB); assay: as above; details: 14 days after application, rating scale 0-100
From the text: as §1, §2, §3, §4

[9] = test system: velvetleaf (Abutilon theophrasti, ABUTH); assay: as above; details: 14 days after application, rating scale 0-100
From the text: as §1, §2, §3, §4

[10] = test system: field corn (Zea mays L., var. Dekalb 535, CORN); assay: Pre-emerge greenhouse test, crop damage rating; details: 14 days after application, rating scale 0-100
From the text: as §1, §2, §3, §4

[11] = test system: upland rice (Oryza sp., var.Tebonnet, RICE); assay: Pre-emerge greenhouse test, crop damage rating; details: 14 days after application, rating scale 0-100
From the text: as §1, §2, §3, §4

[12] = test system: soybean (Glycine max L., var. Pella 86, SOY); assay: Pre-emerge greenhouse test, crop damage rating; parameters: key to SOY crop damage rating: 0 = no damage, 100 = complete death of all plants; details: 14 days after application, rating scale 0-100
From the text: as §1, §2, §3, §4

[13] = test system: Johnsongrass (Sorghum halepense, SORHA); assay: Post-emerge greenhouse herbicide test, phytotoxicity rating; details: 14 days after application, scale 0-100
From the text: as §1, §3
(§5) In the post-emerge test, a commercial non-ionic surfactant was also included (0.25% v/v) to enhance wetting of the leaf surfaces Qf target plants at rates ranging from 63 g ai/ha to 1000 g ai/ha. For post-emerge tests, seeds were planted 8-21 days prior to the test to allow emergence and good foliage development prior to application of the test substances. At the time of the post-emerge application, plants of all species were usually at the 2-3 leaf stage of development. Post-emerge test units were always bottom-watered.
as §4

[14] = test system: barnyardgrass (Echinochloa crusgalli, ECHCG); assay: as above; details: 14 days after application, scale 0-100
From the text: as §1, §3, §5, §4

[15] = test system: green foxtail (Setaria viridis, SETVI); assay: as above; details: 14 days after application, scale 0-100
From the text: as §1, §3, §5, §4

[16] = test system: ivyleaf morningglory (Ipomoea hederacea, IPOHE); assay: as above; details: 14 days after application, scale 0-100
From the text: as §1, §3, §5, §4

[17] = test system: lambsquarters (Chenopodium album, CHEAL); assay: as above; details: 14 days after application, scale 0-100
From the text: as §1, §3, §5, §4

[18] = test system: large crabgrass (Digitaria sanguinalis, DIGSA); assay: as above; details: 14 days after application, scale 0-100
From the text: as §1, §3, §5, §4

[19] = test system: redroot pigweed (Amaranthus retroflexus, AMARE); assay: as above; details: 14 days after application, scale 0-100
From the text: as §1, §3, §5, §4

[20] = test system: sicklepod (Cassia obtusifolia, CASOB); assay: as above; details: 14 days after application, scale 0-100
From the text: as §1, §3, §5, §4

[21] = test system: velvetleaf (Abutilon theophrasti, ABUTH); assay: as above; details: 14 days after application, scale 0-100
From the text: as §1, §3, §5, §4

[22] = test system: field corn (Zea mays L., var. Dekalb 535, CORN); assay: Post-emerge greenhouse test, crop damage rating; details: 14 days after application, scale 0-100
From the text: as §1, §3, §5, §4

[23] = test system: upland rice (Oryza sp., var.Tebonnet, RICE); assay: Post-emerge greenhouse test, crop damage rating; details: 14 days after application, scale 0-100
From the text: as §1, §3, §5, §4

[24] = test system: soybean (Glycine max L., var. Pella 86, SOY); assay: Post-emerge greenhouse test, crop damage rating; parameters: key to crop damage rating SOY: 0-100 scale: 0 = no damage, 100 = complete death of all plants; details: 14 days after application, scale 0-100
From the text: as §1, §3, §5, §4

## Nn1c(C(F)(F)F)cc(=O)n(-c2cc(Oc3cccc(C(F)(F)F)c3)c(Cl)cc2F)c1=O [Compound 9-25, 1-Amino-3-[4-chloro-2-fluoro-5-(3-trifluoromethylphenoxy)phenyl]-6-trifluoro-methyl-1,2,3,4-tetrahydropyrimidine-2,4-dione]
[1]; Rate 125 g al/ha
  SORHA phytotoxicity rating: 80
[1]; Rate 500 g al/ha
  SORHA phytotoxicity rating: 100
[2]; Rate 125 g al/ha
  ECHCG phytotoxicity rating: 70
[2]; Rate 500 g al/ha
  ECHCG phytotoxicity rating: 95
[3]; Rate 125 g al/ha
  SETVI phytotoxicity rating: 100
[3]; Rate 500 g al/ha
  SETVI phytotoxicity rating: 100
[4]; Rate 125 g al/ha
  IPOHE phytotoxicity rating: 70
[4]; Rate 500 g al/ha
  IPOHE phytotoxicity rating: 90
[5]; Rate 125 g al/ha
  CHEAL phytotoxicity rating: 100
[5]; Rate 500 g al/ha
  CHEAL phytotoxicity rating: 100
[6]; Rate 125 g al/ha
  DIGSA phytotoxicity rating: 80
[6]; Rate 500 g al/ha
  DIGSA phytotoxicity rating: 100
[7]; Rate 125 g al/ha
  AMARE phytotoxicity rating: 100
[7]; Rate 500 g al/ha
  AMARE phytotoxicity rating: 100
[8]; Rate 125 g al/ha
  CASOB phytotoxicity rating: 30
[8]; Rate 500 g al/ha
  CASOB phytotoxicity rating: 80
[9]; Rate 125 g al/ha
  ABUTH phytotoxicity rating: 100
[9]; Rate 500 g al/ha
  ABUTH phytotoxicity rating: 100
[10]; Rate 125 g al/ha
  CORN crop damage rating: 20
[10]; Rate 500 g al/ha
  CORN crop damage rating: 40
[11]; Rate 125 g al/ha
  RICE crop damage rating: 40
[11]; Rate 500 g al/ha
  RICE crop damage rating: 90
[12]; Rate 125 g al/ha
  SOY crop damage rating: 50
[12]; Rate 500 g al/ha
  SOY crop damage rating: 80
[13]; rate 63 g ai/ha
  phytotoxicity rating SORHA: 10
[13]; rate 500 g ai/ha
  phytotoxicity rating SORHA: 70
[14]; rate 63 g ai/ha
  phytotoxicity rating ECHCG: 10
[14]; rate 500 g ai/ha
  phytotoxicity rating ECHCG: 0
[15]; rate 63 g ai/ha
  phytotoxicity rating SETVI: 30
[15]; rate 500 g ai/ha
  phytotoxicity rating SETVI: 80
[16]; rate 63 g ai/ha
  phytotoxicity rating IPOHE: 100
[16]; rate 500 g ai/ha
  phytotoxicity rating IPOHE: 100
[17]; rate 63 g ai/ha
  phytotoxicity rating CHEAL: 100
[17]; rate 500 g ai/ha
  phytotoxicity rating CHEAL: 100
[18]; rate 63 g ai/ha
  phytotoxicity rating DIGSA: 0
[18]; rate 500 g ai/ha
  phytotoxicity rating DIGSA: 60
[19]; rate 63 g ai/ha
  phytotoxicity rating AMARE: 100
[19]; rate 500 g ai/ha
  phytotoxicity rating AMARE: 100
[20]; rate 63 g ai/ha
  phytotoxicity rating CASOB: 50
[20]; rate 500 g ai/ha
  phytotoxicity rating CASOB: 100
[21]; rate 63 g ai/ha
  phytotoxicity rating ABUTH: 95
[21]; rate 500 g ai/ha
  phytotoxicity rating ABUTH: 100
[22]; rate 63 g ai/ha
  crop damage rating CORN: 15
[22]; rate 500 g ai/ha
  crop damage rating CORN: 35
[23]; rate 63 g ai/ha
  crop damage rating RICE: 5
[23]; rate 500 g ai/ha
  crop damage rating RICE: 35
[24]; rate 63 g ai/ha
  crop damage rating SOY: 60
[24]; rate 500 g ai/ha
  crop damage rating SOY: 80
